Source: a melting point compilation (Tetko et al.; mined from patent text by program, amines drawn as free bases though some values may be those of a salt)

SMILES | melting point
CCC(C)c1ccccc1N (stereo unspecified) | 89 to 91 °C
O=C(O)[C@@H]1OC(c2ccccc2)=N[C@H]1c1ccccc1 | 135 °C
CCS(=O)(=O)N(c1cc([N+](=O)[O-])c(F)cc1Br)S(=O)(=O)CC | 144 to 146 °C
Cc1c(C(=O)Nc2ccc(N3CCC(=O)CC3)c(C#N)c2)cnn1-c1ccc(Cl)cc1 | 238 °C
Cn1ccnc1S(=O)CC(=O)C12CC3CC(CC(C3)C1)C2 (stereo unspecified) | 86 to 89 °C
CCCCCCCCCCCCCCCCSCCO | 50 °C
CS(=O)(=O)NC1CCCc2ccc([N+](=O)[O-])cc21 (stereo unspecified) | 150 to 152 °C
O=C(Nc1nc(C(F)(F)F)co1)C1c2cc(F)ccc2Oc2ccc(F)cc21 | 259 °C
CCN(CC)c1ccc(-c2cc(-c3ccc(C(=O)O)cc3)ccc2CCCN)cc1C(C)(C)C | 272 °C
CCOC1CC2(C)C(CCC3C2C(=O)CC2(C)C3CCC23OCCO3)CC1O (stereo unspecified) | 142 to 145 °C
CCCC(=O)OCCOc1ccc2oc3cc(-c4nnn[nH]4)ccc3c(=O)c2c1 | 207 to 209 °C
Cc1cc2ccc(Cl)c(Cl)c2[nH]1 | 70 to 71 °C
Cn1nc2c(cc1=O)CCc1cc(O)ccc1-2 | > 300 °C
CC(=O)c1cccn1[C@@H](Cc1ccc(OCCc2nc(-c3ccccc3)oc2C)cc1)C(=O)O | 110 to 112 °C
COc1ccc2cc3c(CN)nn(C)c3nc2c1 | 119 to 120 °C
C=CCn1nc(CCCC)c(Cc2ccc(-c3ccccc3-c3nnn[nH]3)cc2)c1COC | 39 to 41 °C
N#Cc1cc(C(F)(F)F)[nH]c1-c1ccsc1Br | 170 °C
O=[N+]([O-])c1ccc(C2(Br)CCCCC2)cc1 | 83.5 to 85.5 °C
CC(C(=O)O)c1ccc(CC2CCCCC2=O)cc1 (stereo unspecified) | 84 to 86 °C
CC(=O)N(N=Nc1cc(C(F)(F)F)ccc1C#N)c1cc(C(F)(F)F)ccc1C#N | 111 to 112 °C
O=[N+]([O-])C(F)(CCc1nnc(C(F)(F)C(F)(F)C(F)(F)F)o1)[N+](=O)[O-] | 21 to 22 °C
Fc1ccc(-c2nc(CCCSc3ccccc3)[nH]c2-c2ccncc2)cc1 | 98 to 99 °C
N#Cc1c(N2CCN(C(=O)c3cccs3)CC2)c2cc(F)cnc2n(Cc2cccc(F)c2)c1=O | 137 °C
CN(C)CCCOc1ccc2ccc(NC(=O)c3c(F)cccc3F)nc2n1 | 190 °C
CCCSCc1cc2oc(S(N)(=O)=O)cc2cn1 | 171 to 172 °C
COc1ccccc1C=CC(=O)C(CC=Cc1ccccc1Cl)(CCC(=O)O)c1ccccc1 (stereo unspecified) | 206 to 210 °C

SMILES | melting point
CS(=O)(=O)c1ccc(-c2cnn(CC(F)(F)F)c(=O)c2NC2CCC2)cc1 | 169 to 172 °C
Nc1nc(Nc2ccc(SC3(Cl)C=CC(C(F)(F)F)=CN3)cc2)sc1C(=O)c1c(Cl)cc(C(F)(F)F)cc1Cl (stereo unspecified) | 130 to 132 °C
N#Cc1cncc(-c2ccc(OC[C@@H](N)Cc3ccccc3)cc2)c1Nc1cccc2[nH]ccc12 | 83 to 85 °C
COC(=O)c1cc(C(=O)OC)cc(-c2cc(C(=O)OC)cc(C(=O)OC)c2)c1 | 214 to 215 °C
N#Cc1cccc(CN2CCC(c3ccc(NC(=O)c4ccccc4-c4ccc(C(F)(F)F)cc4)cc3)CC2)c1 | 124 to 126 °C
Cc1cccc(-c2nc3c(o2)C(=O)c2ccccc2C3=O)c1 | 255 °C
CC(=O)Oc1ccc(-c2nc3c(N)nc(N)nc3nc2N)cc1 | 319 to 321 °C
O=C1[C@H]2CCC[C@H]2N(C(=O)CCCCCn2ccnc2)c2ccccc2N1Cc1ccccc1 (relative stereo) | 133 to 134 °C
c1ccc(-c2ccc(Cc3ccco3)[nH]2)cc1 | 79 to 80 °C
Cc1cc(Cl)cc(C(=O)c2ccc(S(C)(=O)=O)cc2Cl)c1O | 175 to 180 °C
Cc1cnc2ccc(-c3cccnc3)nn12 | 173 to 175 °C
N#Cc1cccc2c1[nH]c1ccccc12 | 200 to 201 °C
CC(C)NCCCCOc1ccc(O)cc1 | 91 to 93 °C
COC(=O)c1cc(C2OC(=O)CC(C)O2)cnc1C1=NC(C)(C(C)C)C(=O)N1 (stereo unspecified) | 65 to 75 °C
O=C1CCC(=O)N1CCS | 45 °C
O=C1NC2CCC(=O)N2[C@H]1Cc1ccccc1 (stereo partly specified) | 141 to 145 °C
COc1cccc(S)c1S(=O)(=O)NC(C)(C)C | 210 °C
CCCc1c(OCc2ccc(C=CC(=O)O)cc2)ccc(C(C)=O)c1O | 203 to 204 °C
COc1ccc2c(c1)c(C(=O)N1CCN(C)CC1)c(N1CCNCC1)n2C | 124 to 125 °C
O=C1c2ccccc2-c2c1c1ccccc1c(=O)n2CCCCCO | 144 to 146 °C
CC(C)(C)C(NC(=O)c1ccccc1)Nc1c(Nc2cccnc2)c(=O)c1=O (stereo unspecified) | 246 to 247 °C
O=C1NC(=O)C(c2ccc(NCc3ccc(Cl)c(Cl)c3)cc2)S1 (stereo unspecified) | 132 to 133 °C
O=C(O)CCOCCCc1ccc(-c2nc(=O)c3ccccc3s2)nc1 | 145 to 147 °C
Cn1nnnc1-c1ccc2oc3ncccc3c(=O)c2c1 | 248 °C
CC(C)c1nn(-c2ccc(C(F)(F)F)cn2)cc1CCCOc1cccc(OC(C)(C)C(=O)O)c1 | 101 to 102 °C
